This is an account of results in patent US8697692B2, “Pyrrolo [3,2-c] pyridine-4-one 2-indolinone protein kinase inhibitors” (Shanghai Hengrui Pharmaceutical Co., Ltd., priority 2006, dated 2014).

Assay [1] deals with T1, HER-2/ErbB2 kinase (Homo sapiens, UniProt P04626).
T1 construct: purchased Invitrogen corporation #PV3366
As to the kind of experiment: HER-2 Kinase Assay (ELISA). It counts as biochemical. Conditions: 20 μM ATP, 25° C. 60 minutes. Here is the method:
An enzyme linked immunosorbent assays (ELISA) was conducted to measure the kinase activity of HER-2 in vitro.
a. Wash Buffer (PBS-T Buffer): 1×PBS (137 mM NaCl; 2.7 mM KCl, 4.3 mM Na2HPO4, 1.4 mM KH2PO4, adjust the pH to 7.2) and 0.05% Tween-20.
b. 1% Bovine Serum Albumin (BSA, Calbiochem #136593) in PBS-T.
c. Stop Buffer: 50 mM EDTA, pH 8.0.
d. DELFIA® Europium-labeled Anti-mouse IgG (PerkinElmer Life Sciences #AD0124).
e. DELFIA® Enhancement Solution (PerkinElmer Life Sciences #1244-105).
f. DELFIA® Streptavidin coated, 96-well, yellow plate (PerkinElmer Life Sciences #AAAND-0005).
g. HER-2/ErbB2 kinase (Invitrogen corporation #PV3366).
h. 10 mM ATP solution (Cell signaling technology #9804).
i. FLT3 (Tyr589) Biotinylated Peptide (Cell signaling technology #1305).
j. Phospho-Tyrosine Mouse mAb (P-Tyr-100) (Cell signaling technology #9411).
k. HTScan™ Tyrosine Kinase Buffer (4×)
(Cell signaling technology #9805).
l. 1.25 M DTT (1000×) (Cell signaling technology).
The following protocol was used:
1. Dilute test compound with DMSO to the desired final assay concentration. Add 1 μl test compound for every assay, to the negative control.
2. Dilute 6 μM substrate peptide (Tyr589) 1:1 with dH2O, add 15 μl to every assay.
3. Immediately transfer HER-2 enzyme from −80° C. to ice. Allow enzyme to thaw on ice.
4. Take 4.5 μg HER-2 enzyme to the enzyme tube.
5. Add 10 μl of DTT (1.25 M) to 2.5 ml of 4×HTScan™ Tyrosine Kinase Buffer (240 mM HEPES pH 7.5, 20 mM MgCl2, 20 mM MnCl2, 12 μM Na3VO4) to make DTT/Kinase buffer.
6. Transfer 0.75 ml of DTT/Kinase buffer to each enzyme tube to make 4× reaction cocktail. Add 7.5 μl 4× reaction cocktail to every assay.
7. Add 4 μl ATP (10 mM) to 496 μl dH2O, take 7.5 μl for every assay. Final Assay Conditions for a 30 μl Reaction
Incubate reaction tube at 25° C. for 60 minutes. 9. Add 30 μl/assay stop buffer (50 mM EDTA, pH 8.0) to stop the reaction. 10. Transfer 25 μl of each reaction and 75 μl dH2O/well to a 96-well streptavidin coated plate and incubate, with shaking at room temperature for 60 minutes. 11. Wash three times with 200 μl/well PBS-T buffer. Pat plate on paper towel to remove excess liquid. 12. Dilute primary antibody, Phospho-Tyrosine mAb (P-Tyr-100), 1:1000 in PBS-T buffer with 1% BSA. Add 100 μl diluted primary antibody to each well. 13. Incubate, with shaking at room temperature for 60 minutes. 14. Wash as described above in step 11. 15. Dilute Europium labeled anti-mouse IgG 1:500 in PBS-T buffer with 1% BSA. Add 100 μl diluted antibody to each well. 16. Incubate, with shaking at room temperature for 30 minutes. 17. Wash five times with 200 μl/well PBS-T buffer. Pat plate on paper towel to remove excess liquid. 18. Add 100 μl/well DELFIA® Enhancement Solution. 19. Incubate, with shaking at room temperature for 5 minutes. 20. Detect 615 nm fluorescence emission with appropriate Time-Resolved Plate Reader.
Calculate the inhibition rate: IR (%)=100−100*(X−B)/(N−B)
X=the fluorescence value of the well contained test compound
The IC50 value can be derived from the IRs of compounds at different concentration gradients.

The subject of assay [2] is A431 cell. Put plainly: Cell Proliferation Inhibition EGFR Assay (SRB method). It counts as cell-based, homo sapient. Particulars: Homo sapiens, A-431; A431 cells, 72 hours exposure, Sulforhodamine B; read-out: IC50 (A431). An outline of the steps:
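A431 cells grown to ~85% confluence, then exposed 72 hours at 37° C to 6 to 7 serial concentrations of compound in DMEM/F12 + 10% FBS, final DMSO ≤0.5%. Growth measured by TCA fixation and sulforhodamine B staining; IC50 calculated from inhibition rates.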
For orientation: The SRB assay estimates cell density from bound dye.

T1 sequence (P04626 23-1255): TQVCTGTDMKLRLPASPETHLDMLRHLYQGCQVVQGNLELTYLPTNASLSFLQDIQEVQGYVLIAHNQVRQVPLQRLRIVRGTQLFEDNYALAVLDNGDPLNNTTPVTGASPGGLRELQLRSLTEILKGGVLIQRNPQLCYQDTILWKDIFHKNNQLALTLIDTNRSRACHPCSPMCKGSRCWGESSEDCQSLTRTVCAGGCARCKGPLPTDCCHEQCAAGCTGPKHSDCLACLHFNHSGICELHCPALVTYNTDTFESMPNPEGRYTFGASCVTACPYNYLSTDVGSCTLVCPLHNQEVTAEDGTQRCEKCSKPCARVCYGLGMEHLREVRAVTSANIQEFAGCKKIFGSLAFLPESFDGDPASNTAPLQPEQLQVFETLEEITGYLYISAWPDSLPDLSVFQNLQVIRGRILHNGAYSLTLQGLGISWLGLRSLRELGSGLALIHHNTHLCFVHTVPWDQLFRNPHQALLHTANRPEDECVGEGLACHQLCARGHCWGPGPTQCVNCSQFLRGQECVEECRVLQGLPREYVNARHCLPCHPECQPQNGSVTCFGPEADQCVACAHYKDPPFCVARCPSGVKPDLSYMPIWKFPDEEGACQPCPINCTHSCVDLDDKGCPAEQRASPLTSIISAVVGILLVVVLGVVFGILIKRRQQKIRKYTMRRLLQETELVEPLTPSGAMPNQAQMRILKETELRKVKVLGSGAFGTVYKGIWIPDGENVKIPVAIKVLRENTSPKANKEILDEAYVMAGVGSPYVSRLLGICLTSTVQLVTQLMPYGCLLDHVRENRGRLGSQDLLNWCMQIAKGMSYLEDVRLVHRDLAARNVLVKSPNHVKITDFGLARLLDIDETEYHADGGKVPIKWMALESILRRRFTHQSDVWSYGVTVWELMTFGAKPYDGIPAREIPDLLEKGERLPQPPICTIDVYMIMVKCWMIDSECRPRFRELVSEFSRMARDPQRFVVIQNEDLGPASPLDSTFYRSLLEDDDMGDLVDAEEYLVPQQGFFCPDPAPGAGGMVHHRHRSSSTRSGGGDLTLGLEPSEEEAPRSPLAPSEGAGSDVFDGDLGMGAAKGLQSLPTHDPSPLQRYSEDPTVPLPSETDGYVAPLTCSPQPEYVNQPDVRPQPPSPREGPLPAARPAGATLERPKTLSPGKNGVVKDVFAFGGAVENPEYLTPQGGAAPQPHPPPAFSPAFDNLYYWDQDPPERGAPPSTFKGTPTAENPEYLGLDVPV

In assay [1], `Cc1c(/C=C2\C(=O)Nc3cccc(Br)c32)[nH]c2c1C(=O)N(CCN1CCOCC1)CC2` [Example 49, 2-(4-Bromo-2-oxo-1,2-dihydro-indol-3-ylidenemethyl)-3-methyl-5-(2-morpholin-4-yl-ethyl)-1,5,6,7-tetrahydro-pyrrolo[3,2-c]pyridin-4-one] had an IC50 of 36100 nM. In the case of `Cc1c(/C=C2\C(=O)Nc3cccc(-c4cccc(F)c4)c32)[nH]c2c1C(=O)N(CCN1CCCCC1)CC2` [Example 64, 2-[4-(3-Fluoro-phenyl)-2-oxo-1,2-dihydro-indol-3-ylidenemethyl]-3-methyl-5-(2-piperidin-1-yl-ethyl)-1,5,6,7-tetrahydro-pyrrolo[3,2-c]pyridin-4-one], the IC50 in assay [1] was determined as 680 nM; in assay [2], 180 nM.

As for `Cc1c(/C=C2\C(=O)Nc3cccc(Br)c32)[nH]c2c1C(=O)N(CCN1CCCC1)CC2` [Example 69, 2-(4-Bromo-2-oxo-1,2-dihydro-indol-3-ylidenemethyl)-3-methyl-5-(2-pyrrolidin-1-yl-ethyl)-1,5,6,7-tetrahydro-pyrrolo[3,2-c]pyridin-4-one], the IC50 in assay [1] amounted to 910 nM; in assay [2], 200 nM. Turning to `Cc1c(/C=C2\C(=O)Nc3cccc(-c4cccc(Cl)c4F)c32)[nH]c2c1C(=O)N(CCN1CCCC1)CC2` [Example 68, 2-[4-(3-Chloro-2-fluoro-phenyl)-2-oxo-1,2-dihydro-indol-3-ylidenemethyl]-3-methyl-5-(2-pyrrolidin-1-yl-ethyl)-1,5,6,7-tetrahydro-pyrrolo[3,2-e]pyridin-4-one], the figures for the half-inhibitory concentration (IC50) in assay [1] and in assay [2] were 530 nM and 13800 nM, respectively. On to `Cc1c(/C=C2\C(=O)Nc3cccc(C4CCNCC4)c32)[nH]c2c1C(=O)N(CCN1CCCC1)CC2` [Example 71, 3-Methyl-2-(2-oxo-4-piperidin-4-yl-1,2-dihydro-indol-3-ylidenemethyl)-5-(2-pyrrolidin-1-yl-ethyl)-1,5,6,7-tetrahydro-pyrrolo[3,2-c]pyridin-4-one], for which the IC50 in assay [1] was found to be 1090 nM; in assay [2], 590 nM.

By IC50 is commonly meant the concentration at which inhibition is half-maximal.
